The target in one test is T1, α4β1/VCAM-1 (Homo sapiens, UniProt P05556+P13612).
T1 construct: The Jurkat (VCAM-1 assays) and HSB (ICAM-1 assays) cell lines were obtained from American Type Culture Collection; endogenous in cells; host or cells: Jurkat (ATCC)
The experiment in a line: Static cell adhesion assay, Jurkat cells on VCAM-1 (VLA-4 agonist activity). In kind it is cell-based. To be noted: EC50 relative to THI0349 (average 11 uM) run on the same plate; Jurkat cells, 50% FBS. The method in brief: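 Calcein-labelled Jurkat cells (2×10^5/well) were added to wells coated with a sub-optimal level of human VCAM-1 (0.5 μg/mL) in PBS, 1 mM MgCl2, 50% FBS with compound in 1% DMSO. After 30 min at 37° C. and washing, adherent-cell fluorescence was read. EC50 was the concentration giving 50% of maximal response.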

In the next test the target is T2, αLβ2/ICAM-1 (Homo sapiens, UniProt P05107+P20701).
T2 construct: The Jurkat (VCAM-1 assays) and HSB (ICAM-1 assays) cell lines were obtained from American Type Culture Collection; endogenous in cells; host or cells: HSB (ATCC)
Briefly: Static cell adhesion assay, HSB cells on ICAM-1 (LFA-1; LAD). In kind it is cell-based. Conditions: RFU of compound / RFU of THI0349, both at the same concentration. The method in brief: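 HSB cells were labeled with calcein-AM for 30 minutes, washed, resuspended in binding buffer (PBS with 2 mM MgCl2, 5 mM EGTA, 50% FBS) and plated at 2×10^5 cells/well in triplicate onto 96-well plates coated overnight at 4° C with ICAM-1 (5 μg/mL in 50 μL TBS) and blocked with 2% BSA. Compounds were tested in 1% DMSO. After 30 minutes at 37° C and three washes, adherent cells were lysed and fluorescence was read; results are compound RFU divided by THI0349 RFU.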

T2 sequence (P20701 26-1170): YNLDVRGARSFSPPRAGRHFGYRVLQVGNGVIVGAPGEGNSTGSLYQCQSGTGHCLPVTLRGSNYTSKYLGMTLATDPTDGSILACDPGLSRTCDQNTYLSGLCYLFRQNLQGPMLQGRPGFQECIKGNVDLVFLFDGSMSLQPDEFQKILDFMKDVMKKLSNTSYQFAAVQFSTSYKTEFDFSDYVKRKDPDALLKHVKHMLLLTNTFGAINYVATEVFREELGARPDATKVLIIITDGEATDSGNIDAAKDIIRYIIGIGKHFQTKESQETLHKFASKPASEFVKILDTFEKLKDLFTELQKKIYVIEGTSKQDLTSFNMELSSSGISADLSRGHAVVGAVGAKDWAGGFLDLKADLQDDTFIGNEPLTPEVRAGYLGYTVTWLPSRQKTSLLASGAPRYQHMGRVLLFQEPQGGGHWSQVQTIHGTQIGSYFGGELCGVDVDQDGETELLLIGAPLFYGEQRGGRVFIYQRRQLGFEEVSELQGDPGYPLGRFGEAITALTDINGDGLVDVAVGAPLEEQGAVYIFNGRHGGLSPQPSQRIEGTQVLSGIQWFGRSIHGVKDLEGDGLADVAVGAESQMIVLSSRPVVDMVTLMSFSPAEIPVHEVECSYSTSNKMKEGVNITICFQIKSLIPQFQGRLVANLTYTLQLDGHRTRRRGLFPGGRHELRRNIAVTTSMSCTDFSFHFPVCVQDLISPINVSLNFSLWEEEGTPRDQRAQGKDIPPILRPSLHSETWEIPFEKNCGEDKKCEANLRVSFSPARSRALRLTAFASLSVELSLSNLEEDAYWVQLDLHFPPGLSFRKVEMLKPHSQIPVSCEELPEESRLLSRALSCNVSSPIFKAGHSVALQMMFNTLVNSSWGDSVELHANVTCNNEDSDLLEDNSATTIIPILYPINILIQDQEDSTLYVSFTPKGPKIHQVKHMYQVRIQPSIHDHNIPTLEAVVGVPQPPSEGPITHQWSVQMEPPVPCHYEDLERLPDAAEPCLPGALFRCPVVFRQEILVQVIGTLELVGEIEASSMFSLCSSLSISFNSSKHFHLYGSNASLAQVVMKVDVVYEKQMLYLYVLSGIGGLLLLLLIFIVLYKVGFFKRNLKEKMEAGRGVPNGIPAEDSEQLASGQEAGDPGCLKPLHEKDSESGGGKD
T2 sequence (P05107 23-769): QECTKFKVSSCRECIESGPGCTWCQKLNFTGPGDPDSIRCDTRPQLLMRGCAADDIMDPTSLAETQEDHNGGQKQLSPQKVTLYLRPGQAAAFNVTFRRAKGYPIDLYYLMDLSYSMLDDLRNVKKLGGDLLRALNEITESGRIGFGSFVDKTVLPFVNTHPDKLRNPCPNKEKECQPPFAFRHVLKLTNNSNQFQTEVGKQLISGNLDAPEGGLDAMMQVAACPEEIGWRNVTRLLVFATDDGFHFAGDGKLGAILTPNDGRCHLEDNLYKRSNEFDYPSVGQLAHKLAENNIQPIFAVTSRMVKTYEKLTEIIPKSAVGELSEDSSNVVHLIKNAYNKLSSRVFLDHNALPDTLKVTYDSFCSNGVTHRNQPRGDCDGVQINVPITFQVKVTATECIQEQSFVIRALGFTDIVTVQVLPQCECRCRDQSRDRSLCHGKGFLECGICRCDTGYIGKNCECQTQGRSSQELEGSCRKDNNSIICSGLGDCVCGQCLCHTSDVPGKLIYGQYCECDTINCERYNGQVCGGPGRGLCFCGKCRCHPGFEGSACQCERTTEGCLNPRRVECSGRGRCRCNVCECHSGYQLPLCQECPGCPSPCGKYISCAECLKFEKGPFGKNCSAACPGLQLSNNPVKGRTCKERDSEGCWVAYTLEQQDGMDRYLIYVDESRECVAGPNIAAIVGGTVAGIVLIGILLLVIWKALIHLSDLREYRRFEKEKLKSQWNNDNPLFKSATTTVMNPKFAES
T1 sequence (P13612 34-1032): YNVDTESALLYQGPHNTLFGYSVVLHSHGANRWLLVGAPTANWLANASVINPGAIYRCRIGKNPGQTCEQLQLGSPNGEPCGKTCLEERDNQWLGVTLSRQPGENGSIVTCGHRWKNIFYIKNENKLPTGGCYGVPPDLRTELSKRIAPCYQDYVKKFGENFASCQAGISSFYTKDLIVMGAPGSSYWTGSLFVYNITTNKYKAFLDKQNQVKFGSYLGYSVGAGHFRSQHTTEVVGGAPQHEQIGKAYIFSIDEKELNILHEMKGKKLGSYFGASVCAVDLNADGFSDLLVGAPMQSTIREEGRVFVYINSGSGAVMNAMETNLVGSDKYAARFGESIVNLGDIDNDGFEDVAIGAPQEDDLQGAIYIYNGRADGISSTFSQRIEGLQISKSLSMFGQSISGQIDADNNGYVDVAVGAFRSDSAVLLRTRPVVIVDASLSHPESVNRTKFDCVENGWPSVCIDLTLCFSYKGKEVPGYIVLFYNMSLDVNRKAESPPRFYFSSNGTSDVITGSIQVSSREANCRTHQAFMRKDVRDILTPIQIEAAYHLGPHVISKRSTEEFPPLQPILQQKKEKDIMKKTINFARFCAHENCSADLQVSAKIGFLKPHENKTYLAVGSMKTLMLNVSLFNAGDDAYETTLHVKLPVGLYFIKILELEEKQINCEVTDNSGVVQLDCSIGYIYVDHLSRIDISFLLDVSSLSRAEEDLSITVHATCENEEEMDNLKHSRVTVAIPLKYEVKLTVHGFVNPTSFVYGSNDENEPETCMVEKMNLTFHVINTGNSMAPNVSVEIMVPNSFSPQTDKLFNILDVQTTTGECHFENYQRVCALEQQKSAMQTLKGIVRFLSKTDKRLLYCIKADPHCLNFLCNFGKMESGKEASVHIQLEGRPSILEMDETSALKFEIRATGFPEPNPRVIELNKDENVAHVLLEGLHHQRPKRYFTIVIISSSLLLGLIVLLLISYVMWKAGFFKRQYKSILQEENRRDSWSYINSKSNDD
T1 sequence (P05556 21-798): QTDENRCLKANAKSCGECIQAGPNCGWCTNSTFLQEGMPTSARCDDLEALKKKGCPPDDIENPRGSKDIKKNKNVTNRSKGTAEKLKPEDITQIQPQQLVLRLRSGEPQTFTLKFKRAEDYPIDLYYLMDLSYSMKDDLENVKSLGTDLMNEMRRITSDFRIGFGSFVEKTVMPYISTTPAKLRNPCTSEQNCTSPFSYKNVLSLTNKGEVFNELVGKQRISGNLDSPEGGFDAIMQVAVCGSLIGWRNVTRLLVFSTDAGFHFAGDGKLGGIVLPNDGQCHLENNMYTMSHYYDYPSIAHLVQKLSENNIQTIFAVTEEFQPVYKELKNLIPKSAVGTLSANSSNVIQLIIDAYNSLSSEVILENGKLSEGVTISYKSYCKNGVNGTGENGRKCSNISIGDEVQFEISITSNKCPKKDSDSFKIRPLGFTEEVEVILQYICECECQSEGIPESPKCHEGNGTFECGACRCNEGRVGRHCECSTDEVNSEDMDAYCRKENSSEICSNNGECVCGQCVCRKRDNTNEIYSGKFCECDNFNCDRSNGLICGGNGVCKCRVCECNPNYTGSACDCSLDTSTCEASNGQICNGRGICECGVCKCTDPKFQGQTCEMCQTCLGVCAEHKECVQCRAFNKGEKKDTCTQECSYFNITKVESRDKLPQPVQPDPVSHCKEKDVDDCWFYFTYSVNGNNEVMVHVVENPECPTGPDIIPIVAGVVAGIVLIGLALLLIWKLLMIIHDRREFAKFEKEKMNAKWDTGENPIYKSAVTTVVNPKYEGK

On to `CCOC(=O)c1cnc(N(Cc2cccc(OC)c2)Cc2cccc(OC)c2)nc1` [Compound 96, ethyl 2-(bis(3-methoxybenzyl)amino)pyrimidine-5-carboxylate], for which the “Group against VCAM” value at α4β1/VCAM-1 is recorded as “III (Group III more than five times the EC50 of THI0349)”. The “LAD Raw Fluorescence Units against LFA-1; Dose 3 µM; Ratio of raw counts Compound/THI0349” value on αLβ2/ICAM-1 is recorded as 0.08.
Turning to `COc1cccc(CN(Cc2cccc(OC)c2)c2cnc(CCOc3ccccc3)o2)c1` [Compound 27, N,N-bis(3-methoxybenzyl)-2-(2-phenoxyethyl)oxazol-5-amine], on α4β1/VCAM-1, the “Group against VCAM” value is recorded as “III (Group III more than five times the EC50 of THI0349)”. The “LAD Raw Fluorescence Units against LFA-1; Dose 3 µM; Ratio of raw counts Compound/THI0349” value at αLβ2/ICAM-1 turned out to be 0.28.
Regarding `COc1cccc(CN(Cc2ccc3ncccc3c2)c2nc(CN3CCOCC3)cs2)c1` [Compound 76, N-(3-methoxybenzyl)-4-(morpholinomethyl)-N-(quinolin-6-ylmethyl)thiazol-2-amine], on α4β1/VCAM-1, the “Group against VCAM” value is “II (Group II is more than twice that of THI0349 but less than five times THI0349's EC50)”. The “LAD Raw Fluorescence Units against LFA-1; Dose 3 µM; Ratio of raw counts Compound/THI0349” value at αLβ2/ICAM-1 is listed as 0.31.
The like results for `CCOC(=O)c1csc(N(Cc2cccc(OC)c2)CC(C)C)n1` [Compound 121, ethyl 2-(isobutyl(3-methoxybenzyl)amino)thiazole-4-carboxylate] were, in that order, “III (Group III more than five times the EC50 of THI0349)” and 0.18.
`COc1cccc(CN(Cc2cccc(OC)c2)c2nc(COCCOCCN3CCOCC3)cs2)c1` [Compound 61, N,N-bis(3-methoxybenzyl)-4-((2-(2-morpholinoethoxy)ethoxy)methyl)thiazol-2-amine]: the “Group against VCAM” value at α4β1/VCAM-1 is recorded as “I (Group I maintains at least the same potency or better up to more than twice that of the EC50 of THI0349 ran on the same plate)”. For the same compound, the “LAD Raw Fluorescence Units against LFA-1; Dose 3 µM; Ratio of raw counts Compound/THI0349” value at αLβ2/ICAM-1 turned out to be 1.9.
`COc1cccc(CN(C)c2nc(C)cs2)c1` [Compound 100, N-(3-methoxybenzyl)-N,4-dimethylthiazol-2-amine]: the “Group against VCAM” value on α4β1/VCAM-1 was “III (Group III more than five times the EC50 of THI0349)”. The “LAD Raw Fluorescence Units against LFA-1; Dose 3 µM; Ratio of raw counts Compound/THI0349” value at αLβ2/ICAM-1 came out at 0.05.
In the case of `COC(=O)c1nc(N(Cc2cccc(OC)c2)Cc2cccc(OC)c2)sc1C` [Compound 101, methyl 2-(bis(3-methoxybenzyl)amino)-5-methylthiazole-4-carboxylate], on α4β1/VCAM-1, the “Group against VCAM” value is “II (Group II is more than twice that of THI0349 but less than five times THI0349's EC50)”. On αLβ2/ICAM-1, the “LAD Raw Fluorescence Units against LFA-1; Dose 3 µM; Ratio of raw counts Compound/THI0349” value is recorded as 0.03.
For the compound `COc1cccc(CN(Cc2cccc(OC)c2)c2nc(COCCOCc3ccccc3Cl)cs2)c1` [Compound 59, 4-((2-((2-chlorobenzyl)oxy)ethoxy)methyl)-N,N-bis(3-methoxybenzyl)thiazol-2-amine], at α4β1/VCAM-1, the “Group against VCAM” value was “II (Group II is more than twice that of THI0349 but less than five times THI0349's EC50)”. Besides, on αLβ2/ICAM-1, the “LAD Raw Fluorescence Units against LFA-1; Dose 3 µM; Ratio of raw counts Compound/THI0349” value was found to be 1.0.
As for `COc1cccc(CN(Cc2cccc(OC)c2)c2nc(COCCOCCOCc3ccccc3Cl)cs2)c1` [Compound 56, 4-((2-(2-((2-chlorobenzyl)oxy)ethoxy)ethoxy)methyl)-N,N-bis(3-methoxybenzyl)thiazol-2-amine], the “Group against VCAM” value on α4β1/VCAM-1 was “III (Group III more than five times the EC50 of THI0349)”. Further, the “LAD Raw Fluorescence Units against LFA-1; Dose 3 µM; Ratio of raw counts Compound/THI0349” value at αLβ2/ICAM-1 is 1.2.
Regarding `COc1cccc(COCc2csc(N(C)Cc3cccc(OC)c3)n2)c1` [Compound 112, N-(3-methoxybenzyl)-4-((3-methoxybenzyloxy)methyl)-N-methylthiazol-2-amine], the “Group against VCAM” value at α4β1/VCAM-1 was “III (Group III more than five times the EC50 of THI0349)”. In addition, the “LAD Raw Fluorescence Units against LFA-1; Dose 3 µM; Ratio of raw counts Compound/THI0349” value at αLβ2/ICAM-1 was 0.04.
The like results for `COc1cccc(CN(Cc2cccc(OC)c2)c2nc(COCCOc3ccccc3)cs2)c1` [Compound 52, N,N-bis(3-methoxybenzyl)-4-((2-phenoxyethoxy)methyl)thiazol-2-amine] were, in that order, “II (Group II is more than twice that of THI0349 but less than five times THI0349's EC50)” and 1.2.
Turning to `COc1cccc(CN(Cc2cccc(OC)c2)c2nc(COCCN3CCc4ccccc43)cs2)c1` [Compound 88, 4-((2-(indolin-1-yl)ethoxy)methyl)-N,N-bis(3-methoxybenzyl)thiazol-2-amine], at α4β1/VCAM-1, the “Group against VCAM” value was “II (Group II is more than twice that of THI0349 but less than five times THI0349's EC50)”. Also, the “LAD Raw Fluorescence Units against LFA-1; Dose 3 µM; Ratio of raw counts Compound/THI0349” value on αLβ2/ICAM-1 worked out at 0.18.
On to `CCOC(=O)c1coc(N(Cc2cccs2)Cc2cccs2)n1` [Compound 13, ethyl 2-(bis(thiophen-2-ylmethyl)amino)oxazole-4-carboxylate], for which the “Group against VCAM” value at α4β1/VCAM-1 is recorded as “I (Group I maintains at least the same potency or better up to more than twice that of the EC50 of THI0349 ran on the same plate)”. Besides, on αLβ2/ICAM-1, the “LAD Raw Fluorescence Units against LFA-1; Dose 3 µM; Ratio of raw counts Compound/THI0349” value was 0.1.
`COc1cccc(CN(Cc2cccc(OC)c2)c2nc(COCCN3CCCCC3)cs2)c1` [Compound 65, N,N-bis(3-methoxybenzyl)-4-((2-(piperidin-1-yl)ethoxy)methyl)thiazol-2-amine]: the “Group against VCAM” value at α4β1/VCAM-1 is listed as “I (Group I maintains at least the same potency or better up to more than twice that of the EC50 of THI0349 ran on the same plate)”. Further, on αLβ2/ICAM-1, the “LAD Raw Fluorescence Units against LFA-1; Dose 3 µM; Ratio of raw counts Compound/THI0349” value turned out to be 0.29.
The like results for `COc1cccc(CN(Cc2cccc(-n3ccnc3)c2)c2nc(CN3CCOCC3)cs2)c1` [Compound 79, N-(3-(1H-imidazol-1-yl)benzyl)-N-(3-methoxybenzyl)-4-(morpholinomethyl)thiazol-2-amine] were, in that order, “II (Group II is more than twice that of THI0349 but less than five times THI0349's EC50)” and 0.32.
With `COc1cccc(CN(Cc2cccc(N3CCOCC3)c2)c2nc(CN3CCOCC3)cs2)c1` [Compound 78, N-(3-methoxybenzyl)-N-(3-morpholinobenzyl)-4-(morpholinomethyl)thiazol-2-amine], the “Group against VCAM” value at α4β1/VCAM-1 is on record as “II (Group II is more than twice that of THI0349 but less than five times THI0349's EC50)”. The “LAD Raw Fluorescence Units against LFA-1; Dose 3 µM; Ratio of raw counts Compound/THI0349” value on αLβ2/ICAM-1 is on record as 0.4.
The like results for `CCOC(=O)c1coc(N(Cc2cccc(OCCOC)c2)Cc2cccc(OCCOC)c2)n1` [Compound 16, ethyl 2-(bis(3-(2-methoxyethoxy)benzyl)amino)oxazole-4-carboxylate] were, in that order, “II (Group II is more than twice that of THI0349 but less than five times THI0349's EC50)” and 0.49.
Consider `COc1cccc(CN(Cc2cccc(OC)c2)c2nc(COCCO)cs2)c1` [Compound 33, 2-((2-(bis(3-methoxybenzyl)amino)thiazol-4-yl)methoxy)ethanol], for which the “Group against VCAM” value at α4β1/VCAM-1 was “III (Group III more than five times the EC50 of THI0349)”. Besides, the “LAD Raw Fluorescence Units against LFA-1; Dose 3 µM; Ratio of raw counts Compound/THI0349” value at αLβ2/ICAM-1 worked out at 0.31.
The like results for `COc1cccc(CN(Cc2cccc(N(C)C)c2)c2nc(CN3CCOCC3)cs2)c1` [Compound 73, N-(3-(dimethylamino)benzyl)-N-(3-methoxybenzyl)-4-(morpholinomethyl)thiazol-2-amine] were, in that order, “II (Group II is more than twice that of THI0349 but less than five times THI0349's EC50)” and 0.12.
